The text below walks through data of ChEMBL document CHEMBL1201862, “PubChem BioAssay data set” (2004).

In assay [1] the test system is HEK293. As to the kind of experiment: NOD1 signaling inhibitors, primary screen, cell-based, luminescence, uHTS (AID 1578). It counts as functional. The note with it: Homo sapiens.
For assay [2], the system named is HEK293. As to the kind of experiment: cells. The assay is classed as functional, cell-based. Particulars: Homo sapiens.
The subject of assay [3] is HEK293. Briefly: cells. It counts as functional, cell-based. Particulars: Homo sapiens. This is another data set of the same source.
Assay [4] has as its target Nucleotide-binding oligomerization domain-containing protein 2 (Homo sapiens, UniProt Q9HC29). As to the kind of experiment: NOD2 signaling inhibitors, cell-based, luminescence, uHTS, HEK293 (AID 1566). It counts as functional.
The subject of assay [5] is HEK293. Briefly: NOD2 signaling inhibitors in MDP-stimulated cells, cell-based, uHTS, luminescence (AID 2001). It counts as functional. The note with it: Homo sapiens.
For assay [6], the system named is HEK293. Briefly: cells. The assay is classed as functional, cell-based. Particulars: Homo sapiens. This is another data set of the same source.
The nature of assay [7]: growth suppression of PTEN-null colon cells, dose response, cell-based, HCT116 PTEN knockout (AID 1047).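 Further: HCT116 colon tumor cells with PTEN knocked out; cells exposed to compound for 60 hours before readout; potency for loss of cell viability measured by luminescence.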 The assay is classed as functional.
A short description of assay [8]: growth suppression of beta-catenin-knockout colon cells, dose response, cell-based, HCT116, human colon tumor (AID 1045).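 Further: HCT116 colon tumor cells with beta catenin knocked out; cells exposed to compound for 60 hours.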 It counts as functional.
Assay [9] addresses T1, Replicative DNA helicase DnaB (Mycobacterium tuberculosis, UniProt P9WMR3).
T1 sequence (P9WMR3 whole entry): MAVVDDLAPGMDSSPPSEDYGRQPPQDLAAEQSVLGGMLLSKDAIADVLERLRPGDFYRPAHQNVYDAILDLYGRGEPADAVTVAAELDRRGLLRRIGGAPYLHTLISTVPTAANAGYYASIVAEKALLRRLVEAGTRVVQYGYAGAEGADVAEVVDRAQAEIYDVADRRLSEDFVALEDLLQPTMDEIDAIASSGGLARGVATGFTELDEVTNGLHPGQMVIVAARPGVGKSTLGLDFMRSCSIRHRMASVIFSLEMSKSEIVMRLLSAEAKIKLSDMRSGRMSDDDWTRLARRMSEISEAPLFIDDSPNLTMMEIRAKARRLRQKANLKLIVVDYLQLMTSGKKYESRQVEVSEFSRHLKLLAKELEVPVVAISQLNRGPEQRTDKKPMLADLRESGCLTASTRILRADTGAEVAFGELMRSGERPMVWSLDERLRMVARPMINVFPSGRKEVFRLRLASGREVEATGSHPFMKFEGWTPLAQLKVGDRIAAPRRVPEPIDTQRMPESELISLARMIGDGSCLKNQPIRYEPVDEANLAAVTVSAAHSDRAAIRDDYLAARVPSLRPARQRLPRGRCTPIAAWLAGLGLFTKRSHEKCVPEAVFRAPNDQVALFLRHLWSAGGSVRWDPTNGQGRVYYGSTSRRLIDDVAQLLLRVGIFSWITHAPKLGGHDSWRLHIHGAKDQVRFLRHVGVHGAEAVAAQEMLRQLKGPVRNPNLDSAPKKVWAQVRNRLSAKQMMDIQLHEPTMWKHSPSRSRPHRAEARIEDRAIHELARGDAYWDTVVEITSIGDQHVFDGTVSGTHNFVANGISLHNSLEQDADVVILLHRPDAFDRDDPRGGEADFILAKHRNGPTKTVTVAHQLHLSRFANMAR
As to the kind of experiment: DnaB intein splicing inhibitors, dose response, biochemical, cell-free fluorescence (AID 449749). It counts as functional.

The target in assay [10] is Heat shock protein HSP 90-alpha (Homo sapiens, UniProt P07900). It counts as functional, organism-based.
The target in a further assay is T2, Protein RecA (Mycobacterium tuberculosis, UniProt P9WHJ3).
T2 sequence (P9WHJ3 whole entry): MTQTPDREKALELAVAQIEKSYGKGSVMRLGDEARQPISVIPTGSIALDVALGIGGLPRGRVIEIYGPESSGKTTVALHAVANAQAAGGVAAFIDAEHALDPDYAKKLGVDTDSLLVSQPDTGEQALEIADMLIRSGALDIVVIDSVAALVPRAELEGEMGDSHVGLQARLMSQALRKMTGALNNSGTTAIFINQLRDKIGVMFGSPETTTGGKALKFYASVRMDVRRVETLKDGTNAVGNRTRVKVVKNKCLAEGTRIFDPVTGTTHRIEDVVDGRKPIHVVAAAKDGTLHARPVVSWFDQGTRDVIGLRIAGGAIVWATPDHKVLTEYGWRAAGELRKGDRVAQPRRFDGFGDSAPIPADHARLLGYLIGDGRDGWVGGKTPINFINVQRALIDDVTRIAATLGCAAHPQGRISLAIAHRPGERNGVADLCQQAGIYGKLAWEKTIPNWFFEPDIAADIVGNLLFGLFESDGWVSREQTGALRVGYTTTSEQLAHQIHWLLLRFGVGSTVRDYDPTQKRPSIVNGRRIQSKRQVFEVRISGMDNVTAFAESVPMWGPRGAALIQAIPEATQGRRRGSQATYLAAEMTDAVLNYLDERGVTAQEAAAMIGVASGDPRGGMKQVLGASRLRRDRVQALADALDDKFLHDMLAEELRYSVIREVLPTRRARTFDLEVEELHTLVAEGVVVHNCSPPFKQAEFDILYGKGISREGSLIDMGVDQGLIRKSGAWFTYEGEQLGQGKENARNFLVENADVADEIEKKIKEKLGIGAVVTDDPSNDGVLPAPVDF
Briefly: Fluorescence Cell-Free Homogeneous Dose Retest to Identify Inhibitors of RecA-Intein Splicing Activity. [Related pubchem assays (depositor defined):AID2097, AID2223, AID489010, AID492950]. It counts as functional.

A short description of assay [11]: THP-1 cell cytotoxicity, dose response, cytotoxicity control for non-replicating M. tuberculosis project (AID 489025). The assay is classed as functional.
Assay [12] is described as follows: Vero E6 cell cytotoxicity, dose response, cytotoxicity control for non-replicating M. tuberculosis project, secondary assay (AID 492998). The assay is classed as functional, VeroE6. Particulars: Vero C1008.
A further assay is described as follows: cells. It counts as functional.
Assay [13] addresses T3, COUP transcription factor 2 (Homo sapiens, UniProt P24468).
T3 sequence (P24468 whole entry): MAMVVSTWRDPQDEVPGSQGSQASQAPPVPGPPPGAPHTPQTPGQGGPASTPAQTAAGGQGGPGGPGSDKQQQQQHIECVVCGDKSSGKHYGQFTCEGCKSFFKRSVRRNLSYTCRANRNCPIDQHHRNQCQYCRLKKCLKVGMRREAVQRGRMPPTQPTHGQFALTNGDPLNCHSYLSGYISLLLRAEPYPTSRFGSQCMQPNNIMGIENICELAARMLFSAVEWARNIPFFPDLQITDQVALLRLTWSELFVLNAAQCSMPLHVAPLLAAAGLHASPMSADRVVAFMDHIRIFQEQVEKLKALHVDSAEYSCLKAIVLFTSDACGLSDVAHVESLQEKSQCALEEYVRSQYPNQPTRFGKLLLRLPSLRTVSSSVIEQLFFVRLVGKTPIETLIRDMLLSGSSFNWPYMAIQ
Briefly: Luminescence-based cell-based high throughput dose response assay to identify inhibitors of COUP-TFII (NR2F2). The assay is classed as functional.

Assay [14] addresses Alkaline phosphatase, placental type (Homo sapiens, UniProt P05187). As to the kind of experiment: PLAP enzyme inhibitors, confirmation, biochemical, luminescence (AID 1512). It counts as functional.
The target of assay [15] is T4, Alkaline phosphatase, tissue-nonspecific isozyme (Homo sapiens, UniProt P05186).
T4 sequence (P05186 whole entry): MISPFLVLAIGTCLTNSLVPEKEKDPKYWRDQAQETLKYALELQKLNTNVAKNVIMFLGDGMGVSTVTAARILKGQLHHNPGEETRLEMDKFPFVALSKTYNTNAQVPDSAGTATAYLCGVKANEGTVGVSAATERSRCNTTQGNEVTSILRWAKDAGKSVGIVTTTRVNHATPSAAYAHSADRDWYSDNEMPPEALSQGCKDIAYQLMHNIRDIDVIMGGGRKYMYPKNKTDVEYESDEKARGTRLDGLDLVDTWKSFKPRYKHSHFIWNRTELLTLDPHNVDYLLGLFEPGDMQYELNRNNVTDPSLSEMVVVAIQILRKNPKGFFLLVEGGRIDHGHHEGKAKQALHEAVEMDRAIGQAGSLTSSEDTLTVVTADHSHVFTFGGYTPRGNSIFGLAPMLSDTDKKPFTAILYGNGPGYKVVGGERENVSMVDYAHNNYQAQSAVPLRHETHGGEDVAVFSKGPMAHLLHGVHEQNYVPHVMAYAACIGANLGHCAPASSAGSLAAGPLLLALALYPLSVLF
As to the kind of experiment: human TNAP enzyme inhibitors, SAR follow-up, biochemical, luminescent, dose response (AID 1056).

Assay [16] has as its target Glyceraldehyde-3-phosphate dehydrogenase (Homo sapiens, UniProt P04406).
Assay [17] has as its target T5, Heat shock factor protein 1 (Mus musculus, UniProt P38532).
T5 sequence (P38532 whole entry): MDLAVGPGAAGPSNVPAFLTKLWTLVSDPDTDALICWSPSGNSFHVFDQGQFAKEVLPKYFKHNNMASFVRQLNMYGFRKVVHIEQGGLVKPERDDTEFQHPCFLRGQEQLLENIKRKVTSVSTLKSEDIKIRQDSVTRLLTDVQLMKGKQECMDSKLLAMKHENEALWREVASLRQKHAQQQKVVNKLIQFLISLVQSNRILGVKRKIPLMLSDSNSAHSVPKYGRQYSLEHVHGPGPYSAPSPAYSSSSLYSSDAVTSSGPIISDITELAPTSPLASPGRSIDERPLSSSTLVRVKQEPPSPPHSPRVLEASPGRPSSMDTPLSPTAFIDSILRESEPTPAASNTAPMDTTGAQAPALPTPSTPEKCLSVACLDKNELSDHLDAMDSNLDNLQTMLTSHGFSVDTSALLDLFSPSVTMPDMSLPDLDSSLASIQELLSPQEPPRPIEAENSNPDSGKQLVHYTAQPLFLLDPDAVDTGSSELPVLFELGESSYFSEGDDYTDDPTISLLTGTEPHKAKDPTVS
As to the kind of experiment: HSF1 potentiators in luciferase reporter cells, confirmation, cell-based, NIH3T3, luminescence, dose retest (AID 435004).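 Further: stress induced by proteasome inhibitor MG132 added 30 min after compound; luciferase reporter driven by HSF1 response element in NIH3T3 cells; actives raise luminescence as potentiators of the MG132 stress response.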 It counts as functional.

The source made the active and inactive calls. Bounds are passed on as bounds.

Sequence of Nucleotide-binding oligomerization domain-containing protein 2 (Q9HC29 whole entry, the tested form may be a part): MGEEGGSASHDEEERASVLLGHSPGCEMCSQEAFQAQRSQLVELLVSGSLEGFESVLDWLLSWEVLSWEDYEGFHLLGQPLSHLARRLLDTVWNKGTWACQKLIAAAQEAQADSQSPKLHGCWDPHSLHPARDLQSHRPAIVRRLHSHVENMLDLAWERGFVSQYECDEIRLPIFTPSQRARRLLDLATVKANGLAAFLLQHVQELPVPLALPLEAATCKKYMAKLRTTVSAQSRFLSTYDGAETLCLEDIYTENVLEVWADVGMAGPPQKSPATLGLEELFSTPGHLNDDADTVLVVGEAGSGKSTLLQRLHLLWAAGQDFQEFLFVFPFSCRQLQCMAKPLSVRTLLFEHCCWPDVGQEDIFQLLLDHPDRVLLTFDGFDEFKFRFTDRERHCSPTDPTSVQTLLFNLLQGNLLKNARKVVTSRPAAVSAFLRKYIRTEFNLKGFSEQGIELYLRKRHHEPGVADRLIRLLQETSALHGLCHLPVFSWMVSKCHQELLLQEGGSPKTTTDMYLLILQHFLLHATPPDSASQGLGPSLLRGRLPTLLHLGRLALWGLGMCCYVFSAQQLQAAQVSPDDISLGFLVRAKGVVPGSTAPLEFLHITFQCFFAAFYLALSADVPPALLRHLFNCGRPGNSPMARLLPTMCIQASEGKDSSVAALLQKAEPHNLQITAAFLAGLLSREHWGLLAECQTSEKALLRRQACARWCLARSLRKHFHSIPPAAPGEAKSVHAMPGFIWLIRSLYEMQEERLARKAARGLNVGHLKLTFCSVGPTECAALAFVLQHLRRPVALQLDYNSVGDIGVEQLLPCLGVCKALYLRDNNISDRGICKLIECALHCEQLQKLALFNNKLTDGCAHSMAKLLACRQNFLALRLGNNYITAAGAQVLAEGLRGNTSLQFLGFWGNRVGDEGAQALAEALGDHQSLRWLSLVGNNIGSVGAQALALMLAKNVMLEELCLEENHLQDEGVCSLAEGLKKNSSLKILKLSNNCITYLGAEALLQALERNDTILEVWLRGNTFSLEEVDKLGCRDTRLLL
Sequence of Alkaline phosphatase, placental type (P05187 whole entry): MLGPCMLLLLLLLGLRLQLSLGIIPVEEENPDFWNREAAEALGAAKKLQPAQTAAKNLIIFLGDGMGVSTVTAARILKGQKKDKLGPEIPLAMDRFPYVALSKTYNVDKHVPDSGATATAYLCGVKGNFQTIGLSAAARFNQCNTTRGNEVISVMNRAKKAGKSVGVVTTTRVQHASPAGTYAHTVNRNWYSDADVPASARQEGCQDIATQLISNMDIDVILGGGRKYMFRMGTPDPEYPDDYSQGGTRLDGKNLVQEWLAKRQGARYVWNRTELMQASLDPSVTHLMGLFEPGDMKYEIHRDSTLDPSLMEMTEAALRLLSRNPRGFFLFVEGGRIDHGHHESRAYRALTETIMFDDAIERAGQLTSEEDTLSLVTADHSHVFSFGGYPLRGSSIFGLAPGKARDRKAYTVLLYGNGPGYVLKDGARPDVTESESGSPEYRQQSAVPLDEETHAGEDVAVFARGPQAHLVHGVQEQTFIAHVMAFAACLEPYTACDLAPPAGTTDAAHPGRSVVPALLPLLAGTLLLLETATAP
Sequence of Glyceraldehyde-3-phosphate dehydrogenase (P04406 whole entry): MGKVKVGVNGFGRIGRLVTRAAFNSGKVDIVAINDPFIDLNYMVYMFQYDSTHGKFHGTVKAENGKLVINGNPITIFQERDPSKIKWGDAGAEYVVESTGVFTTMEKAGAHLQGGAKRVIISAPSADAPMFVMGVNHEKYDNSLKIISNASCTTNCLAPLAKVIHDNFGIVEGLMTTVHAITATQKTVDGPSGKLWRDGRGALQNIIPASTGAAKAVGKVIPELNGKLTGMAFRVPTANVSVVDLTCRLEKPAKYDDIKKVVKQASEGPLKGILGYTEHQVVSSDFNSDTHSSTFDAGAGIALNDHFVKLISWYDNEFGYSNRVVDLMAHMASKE

On to `CC(C)CC(=O)/C(=C\c1ccc(Cl)cc1Cl)n1cncn1`, for which the EC50 in the assay with HEK293 [1] is > 20 µM (inactive); in assay [4], > 20 µM (inactive); in [7], 4.72 µM (active); in assay [8], 4.31 µM (active); on Protein RecA, 11.2 µM (active). Also, the IC50 was 4.25 µM (active) with HEK293 [2], 9.81 µM (active) in the assay with HEK293 [3], 7.85 µM (active) in the assay with HEK293 [5] and > 20 µM (inactive) in the assay on HEK293 [6]. Besides, the figures for the AC50 in assay [9] and in assay [10] were 11.8 µM (active) and 2.04 µM (active), respectively.
As for `O=C(N/N=C\c1ccc([N+](=O)[O-])s1)C1COc2ccccc2O1` (centres undefined), the EC50 in the assay with HEK293 [1] was 9.04 µM (active). The IC50 was 19.1 µM (active) with HEK293 [2], > 20 µM (inactive) in the assay on HEK293 [3], 16.2 µM (inactive) in the assay with HEK293 [5] and 5.68 µM (active) in the assay “cells”. The CC50 in [11] was 22.6 µM (active); in assay [12] it was 13.3 µM (active).
On to `Cc1nc2c(-c3ccc(Cl)cc3)cnn2c(N)c1-c1ccc(F)cc1`, for which the EC50 (in the assay on HEK293 [1]; in assay [4]) was > 20 µM (inactive) throughout. The IC50 was 2.34 µM (active) in the assay with HEK293 [2]; > 20 µM (inactive) in the assay with HEK293 [3]; > 20 µM (inactive) in the assay with HEK293 [5]; > 20 µM (inactive) in the assay on HEK293 [6]; > 85.4 µM (inactive) in [13].
As to `CCc1nc(SCC(=O)c2ccc(O)cc2O)n[nH]1`, the IC50 in [14] and in assay [15] was > 100 µM (inactive) each time.
For the compound `CCc1ccc(-c2ccc(-c3nc(N)nn3-c3ccccc3)cc2)cc1`, the figures for the IC50 in assay [16], in assay [14] and in assay [15] were > 100 µM (not active), > 100 µM (inactive) and > 100 µM (inactive), respectively.
As to `COc1ccc(C(=O)Cn2c(C)nc([N+](=O)[O-])c2Br)cc1`, the CC50 in assay [11] is > 40 µM (active); in assay [12], > 20 µM (active). In assay [17], the EC50 is 19.8 µM (active). Further, in “cells”, the IC50 is 12.1 µM (active).
